Patent US10471046B2, “Method for treating, preventing, or reducing the risk of skin infection” (Melinta Subsidiary Corp., priority 2014, dated 2019)
≈ marks a conversion by molar mass, not a printed value. Where a name gives a salt, the structure may show the parent alone. Read-outs that look alike come from different tables or passages of the source.

Columns and labels:
[1] = tested on: P. granulosum; test: Broth microdilution MIC; type: cell-based; conditions: P. granulosum ATCC 25746
[2] = tested on: S. aureus; test: Broth microdilution MIC; type: cell-based; conditions: for MIC: Staphylococcus aureus, ATCC29213, S. aureus ATCC 29213
[3] = tested on: B. thetaiotaomicron; test: microbe, parasite or virus in culture; type: cell-based; conditions: for MIC: Bacteroides thetaiotaomicron, ATCC29741, read-out: MIC, broth microdilution
[4] = tested on: B. fragilis; test: Broth microdilution MIC; type: cell-based; conditions: Bacteroides fragilis, ATCC25285; B. fragilis ATCC 25285
[5] = tested on: G. vaginalis; test: Broth microdilution MIC; type: cell-based; conditions: Gardnerella vaginalis
[6] = tested on: F. magna; test: Broth microdilution MIC; type: cell-based; conditions: Finegoldia magna, ATCC15794; F. magna ATCC 15794
[7] = Solubility of salts in water by HPLC; type: physicochemical; conditions: for Solubility at Adjusted pH / Solubility at Native pH: radezolid salts in water by HPLC at 23° C.; for Solubility at Adjusted pH: pH adjusted to ~3.5; for Native pH: supernatant of saturated salt solution in water
Protocol: In another set of experiments, solubility of various radezolid salts was determined by HPLC. Approximately 1 mL of saturated solution (with excess of solid in solution) of each salt was prepared in water. The mixture was further mixed overnight on a slurry wheel then centrifuged on a desktop centrifuge at maximum speed for ˜5 min. The supernatant was collected, and pH was measured. Solubility was determined at the native pH. Then the pH was adjusted to ˜3.5 with sodium hydroxide solution or an acid solution in which salt was generated. The supernatant was filtered through a 0.2 μm nylon syringe filter and diluted into 0.1% formic acid solution immediately after filtration for HPLC. All HPLC analyses were performed using an Agilent 1100 series liquid chromatograph equipped with a diode array detector, degasser, quaternary pump, and an autosampler. […] The column temperature was set to 30° C., and the detector wavelength was 270 nm with a bandwidth of 8 nm and a reference wavelength of 360 nm. The mobile phase A was 0.1% formic acid in water (HPLC grade), mobile phase B was 0.1% formic acid in methanol (HPLC grade). […] The injection volume was 5 μl.

[8] = Dynamic vapor sorption/desorption (DVS); type: physicochemical; conditions: radezolid salts
Protocol: Dynamic vapor sorption/desorption (DVS) data were collected on a VTI SGA-100 Vapor Sorption Analyzer. Sorption and desorption data were collected over a range of 5% to 95% relative humidity (RH) at 10% RH intervals under a nitrogen purge. Samples were not dried prior to analysis. Equilibrium criteria used for analysis were less than 0.0100% weight change in 5 minutes, with a maximum equilibration time of 3 hours if the weight criterion was not met. Data were not corrected for the initial moisture content of the samples. Sodium chloride and polyvinylpyrrolidine (PVP) were used as calibration standards.

[9] = type: physicochemical; conditions: radezolid salt forms in HPLC grade water, ambient temperature
[10] = Approximate solubility in solvents by aliquot addition; type: physicochemical; conditions: organic solvent or mixture, thermodynamic from solid
Protocol: Solubilities of the radezolid free base and radezolid HCl salt in various solvents were estimated and are shown in Tables 10 and 11, respectively, below. A weighed sample was treated with aliquots of test solvent at ambient temperature. Complete dissolution of the test material was determined by visual inspection. Solubility was estimated based on the total solvent used to provide complete dissolution. The actual solubility may be greater than the approximate solubility calculated because of the use of solvent aliquots that were too large or due to a slow rate of dissolution. […] If complete dissolution was achieved as a result of only one aliquot addition, the solubility is expressed as “greater than.” The approximate solubilities were rounded to the nearest whole number.

[11] = ATCC14018, G. vaginalis ATCC 14018
[12] = ATCC49145, G. vaginalis ATCC 49145

SMILES: C[C@H]1c2cccc(O)c2C(=O)C2=C(O)[C@]3(O)C(=O)C(C(N)=O)=C(O)[C@@H](N(C)C)[C@@H]3[C@@H](O)[C@@H]21 [DOX, doxycycline]
- MIC [1]: 0.25 µg/mL (≈ 0.563 µM)
- MIC difference relative to radezolid MIC ([2]; S. aureus, doxycycline and clindamycin: MICs lower than radezolid): 4 fold
- MIC [2]: 0.5 µg/mL (≈ 1.13 µM)
- MIC difference relative to radezolid MIC ([3]; B. thetaiotaomicron, doxycycline: more potent than radezolid): 4 fold
- MIC [3]: 2 µg/mL (≈ 4.5 µM)
- MIC [4]: ≤ 0.06 µg/mL
- MIC [5, 11]: 0.5 µg/mL (≈ 1.13 µM)
- MIC [5, 12]: 32 µg/mL (≈ 72 µM)
- MIC [6]: 0.125 µg/mL (≈ 0.281 µM)

SMILES: CC(=O)NC[C@H]1CN(c2ccc(-c3ccc(CNCc4cnn[nH]4)cc3)c(F)c2)C(=O)O1 [Mesylate, Radezolid Mesylate Salt]
- Solubility at Adjusted pH ([7]; Mesylate Salt): 18.0 mg/mL
- Solubility at Native pH ([7]; Mesylate Salt): 18.6 mg/mL
- Native pH ([7]; Mesylate Salt): 4.1
- DVS desorption: weight loss from 95 to 5% RH ([8]; Mesylate Salt): Desorption: 0.835% weight loss
- DVS sorption: weight gain from 5 to 95% RH ([8]; Mesylate Salt): 1.025% weight gain from 5 to
- DVS sorption: weight loss upon equilibration at 5% RH ([8]; Mesylate Salt): Sorption: 0.114% weight loss

SMILES: CC(=O)NC[C@H]1CN(c2ccc(-c3ccc(CNCc4cnn[nH]4)cc3)c(F)c2)C(=O)O1 [Citrate]
- solubility [9]: 2600 µg/mL

SMILES: CC(=O)NC[C@H]1CN(c2ccc(-c3ccc(CNCc4cnn[nH]4)cc3)c(F)c2)C(=O)O1 [Acetate]
- solubility [9]: <20 µg/mL

SMILES: CC(=O)NC[C@H]1CN(c2ccc(-c3ccc(CNCc4cnn[nH]4)cc3)c(F)c2)C(=O)O1 [Hydrochloride, (5S)—N-[3-(2-Fluoro-4′-{[(1H-[1,2,3]triazol-4-ylmethyl)-amino]-methyl}-biphenyl-4-yl)-2-oxo-oxazolidin-5-ylmethyl]-acetamide chloride]
- Solubility at Adjusted pH ([7]; listed as HCl Salt): 2.0 mg/mL
- Native pH ([7]; listed as HCl Salt): 4.6
- solubility [9]: <30 µg/mL
- solubility ([10]; 1-butanol, Table 11: 1-Butanol, material never went into solution): < 2000 µg/mL
- solubility ([10]; 2,2,2-trifluoroethanol (TFE), Table 11: 2,2,2-trifluoroethanol (TFE)): ≥ 6000 µg/mL
- solubility ([10]; 2-butanone, Table 11: 2-Butanone, material never went into solution): < 2000 µg/mL
- solubility ([10]; 2-propanol, Table 11: 2-Propanol, material never went into solution): < 2000 µg/mL
- solubility ([10]; HFIPA/THF, Table 11: HFIPA/THF): ≥ 74000 µg/mL
- solubility ([10]; HFIPA/dioxane (9:1), Table 11: HFIPA/Dioxane (9:1)): ≥ 52000 µg/mL
- solubility ([10]; HFIPA/ethanol (5:1), Table 11: HFIPA/Ethanol (5:1)): ≥ 80000 µg/mL
- solubility ([10]; dioxane, Table 11: Dioxane, material never went into solution): < 2000 µg/mL
- solubility ([10]; ethanol, Table 11: Ethanol, material never went into solution): < 2000 µg/mL
- solubility ([10]; hexafluoroisopropanol (HFIPA), Table 11: Hexafluoroisopropanol (HFIPA)): ≥ 225000 µg/mL
- solubility ([10]; methanol, Table 11: Methanol, material never went into solution): < 2000 µg/mL
- solubility ([10]; propionitrile, Table 11: Propionitrile, material never went into solution): < 2000 µg/mL
- solubility ([10]; tert-butanol, Table 11: Tert-butanol, material never went into solution): < 5000 µg/mL
- solubility ([10]; tetrahydrofuran (THF), Table 11: Tetrahydrofuran (THF), material never went into solution): < 2000 µg/mL
- DVS desorption: weight loss from 95 to 5% RH [8]: Desorption: 0.069% weight loss
- DVS sorption: weight gain from 5 to 95% RH [8]: 0.064% weight gain from 5 to
- DVS sorption: weight gain upon equilibration at 5% RH [8]: Sorption: 0.03% weight gain

SMILES: CC[C@H]1OC(=O)[C@H](C)[C@@H](O[C@H]2C[C@@](C)(OC)[C@@H](O)[C@H](C)O2)[C@H](C)[C@@H](O[C@@H]2O[C@H](C)C[C@H](N(C)C)[C@H]2O)[C@](C)(O)C[C@@H](C)C(=O)[C@H](C)[C@@H](O)[C@]1(C)O [ERY, erythromycin]
- MIC [1]: 16 µg/mL (≈ 21.8 µM)
- MIC [2]: 1 µg/mL (≈ 1.36 µM)
- MIC [3]: 16 µg/mL (≈ 21.8 µM)
- MIC [4]: 16 µg/mL (≈ 21.8 µM)
- MIC [5, 11]: ≤ 0.06 µg/mL
- MIC [5, 12]: ≤ 0.06 µg/mL
- MIC [6]: 4 µg/mL (≈ 5.45 µM)

SMILES: CC(=O)NC[C@H]1CN(c2ccc(-c3ccc(CNCc4cnn[nH]4)cc3)c(F)c2)C(=O)O1 [Ethane-1,2-disulfonate, Radezolid Ethanedisulfonate Salt]
- Solubility at Native pH [7]: >133.2 mg/mL
- Solubility at Adjusted pH [7]: >116.9 mg/mL
- Native pH [7]: 2.0
- DVS desorption: weight loss from 95 to 5% RH [8]: Desorption: 2.388% weight loss
- DVS sorption: weight gain from 5 to 95% RH [8]: 2.355% weight gain from 5 to
- DVS sorption: weight loss upon equilibration at 5% RH [8]: Sorption: 0.017% weight loss

SMILES: CC(=O)NC[C@H]1CN(c2ccc(-c3ccc(CNCc4cnn[nH]4)cc3)c(F)c2)C(=O)O1 [Esylate, Radezolid Esylate Salt]
- Solubility at Native pH [7]: 53.8 mg/mL
- Solubility at Adjusted pH [7]: 61.7 mg/mL
- Native pH [7]: 4.0
- DVS desorption: weight loss from 95 to 5% RH [8]: Desorption: 2.999% weight loss
- DVS sorption: weight gain from 5 to 95% RH [8]: 2.930% weight gain from 5 to
- DVS sorption: weight loss upon equilibration at 5% RH [8]: Sorption: 0.22% weight loss

SMILES: CC(=O)NC[C@H]1CN(c2ccc(-c3ccc(CNCc4cnn[nH]4)cc3)c(F)c2)C(=O)O1 [Tosylate, Radezolid Tosylate Salt]
- Solubility at Adjusted pH ([7]; Tosylate Salt): 0.4 mg/mL
- Solubility at Native pH ([7]; Tosylate Salt): 0.9 mg/mL
- Native pH ([7]; Tosylate Salt): 5.1
- DVS desorption: weight loss from 95 to 5% RH ([8]; Tosylate Salt): Desorption: 0.435% weight loss
- DVS sorption: weight gain from 5 to 95% RH ([8]; Tosylate Salt): 0.435% weight gain from 5 to
- DVS sorption: weight loss upon equilibration at 5% RH ([8]; Tosylate Salt): Sorption: 0.070% weight loss

SMILES: CC(=O)NC[C@H]1CN(c2ccc(-c3ccc(CNCc4cnn[nH]4)cc3)c(F)c2)C(=O)O1 [Succinate]
- solubility [9]: <30 µg/mL

SMILES: CC(=O)NC[C@H]1CN(c2ccc(-c3ccc(CNCc4cnn[nH]4)cc3)c(F)c2)C(=O)O1 [Tartrate]
- solubility [9]: 1800 µg/mL

SMILES: Cc1ncc([N+](=O)[O-])n1CCO [MET, metronidazole]
- MIC [1]: 1 µg/mL (≈ 5.84 µM)
- MIC [2]: > 32 µg/mL
- MIC [3]: 4 µg/mL (≈ 23.4 µM)
- MIC [4]: 0.5 µg/mL (≈ 2.92 µM)
- MIC [5, 11]: 8 µg/mL (≈ 46.7 µM)
- MIC [5, 12]: 4 µg/mL (≈ 23.4 µM)
- MIC [6]: 0.125 µg/mL (≈ 0.73 µM)

SMILES: CC(=O)NC[C@H]1CN(c2ccc(-c3ccc(CNCc4cnn[nH]4)cc3)c(F)c2)C(=O)O1 [Phosphate]
- solubility [9]: 1100 µg/mL

SMILES: CC(=O)NC[C@H]1CN(c2ccc(-c3ccc(CNCc4cnn[nH]4)cc3)c(F)c2)C(=O)O1 [Fumarate]
- solubility [9]: 2600 µg/mL

SMILES: CC(=O)NC[C@H]1CN(c2ccc(-c3ccc(CNCc4cnn[nH]4)cc3)c(F)c2)C(=O)O1 [Sulfate, Radezolid Sulfate Salt]
- Solubility at Adjusted pH ([7]; Sulfate Salt): 3.3 mg/mL
- Solubility at Native pH ([7]; Sulfate Salt): 4.0 mg/mL
- Native pH ([7]; Sulfate Salt): 1.9
- DVS desorption: weight loss from 95 to 5% RH ([8]; Sulfate Salt): Desorption: 11.504% weight loss
- DVS sorption: weight gain from 5 to 95% RH ([8]; Sulfate Salt): 11.527% weight gain from 5 to
- DVS sorption: weight loss upon equilibration at 5% RH ([8]; Sulfate Salt): Sorption: 0.654% weight loss

SMILES: CC(=O)NC[C@H]1CN(c2ccc(-c3ccc(CNCc4cnn[nH]4)cc3)c(F)c2)C(=O)O1 [Lactate]
- solubility [9]: <20 µg/mL

SMILES: CC(=O)NC[C@H]1CN(c2ccc(-c3ccc(CNCc4cnn[nH]4)cc3)c(F)c2)C(=O)O1 [Benzoate]
- solubility [9]: <30 µg/mL

SMILES: CC(=O)NC[C@H]1CN(c2ccc(-c3ccc(CNCc4cnn[nH]4)cc3)c(F)c2)C(=O)O1 [Maleate]
- solubility [9]: 2300 µg/mL

SMILES: CC(=O)NC[C@H]1CN(c2ccc(-c3ccc(CNCc4cnn[nH]4)cc3)c(F)c2)C(=O)O1 [Salicylate]
- solubility [9]: <30 µg/mL
